Assay results taken from ChEMBL document CHEMBL3856200, “Isolation and Structure of Cancer Cell Growth Inhibitory Tetracyclic Triterpenoids from the Zimbabwean Monadenium lugardae” (2016).
Converted amounts (≈) assume the structure as drawn.

How the values were obtained:
Format in all cases: functional
[1] = Cytotoxicity against mouse P388 cells assessed as growth inhibition after 48 hrs by coulter particle counting method; settings: P388, 48 h, read-out: ED50 (the source's name)
[2] = Cytotoxicity against human BxPC3 cells assessed as growth inhibition after 48 hrs by sulforhodamine B assay; settings: BXPC-3, 48 h
[3] = Cytotoxicity against human MCF7 cells assessed as growth inhibition after 48 hrs by sulforhodamine B assay; settings: MCF7, 48 h
[4] = Cytotoxicity against human SF268 cells assessed as growth inhibition after 48 hrs by sulforhodamine B assay; settings: SF-268, 48 h
[5] = Cytotoxicity against human NCI-H460 cells assessed as growth inhibition after 48 hrs by sulforhodamine B assay; settings: NCI-H460, 48 h
[6] = Cytotoxicity against human KM20L2 cells assessed as growth inhibition after 48 hrs by sulforhodamine B assay; settings: KM-20L2, 48 h
[7] = Cytotoxicity against human DU145 cells assessed as growth inhibition after 48 hrs by sulforhodamine B assay; settings: DU-145, 48 h

SMILES: C[C@H](C/C=C/C(C)(C)O)[C@H]1CC[C@@]2(C)C3=C(CC[C@]12C)[C@@]1(C)CC[C@H](O)C(C)(C)[C@@H]1CC3
- EC50 [1]: > 10 µg/mL
- GI50 [2]: 1.8 µg/mL (≈ 4.07 µM)
- GI50 [3]: 2 µg/mL (≈ 4.52 µM)
- GI50 [4]: 1.9 µg/mL (≈ 4.29 µM)
- GI50 [5]: 1.9 µg/mL (≈ 4.29 µM)
- GI50 [6]: 1.8 µg/mL (≈ 4.07 µM)
- GI50 [7]: 1.9 µg/mL (≈ 4.29 µM)

SMILES: C=C(C)[C@@H](O)CC[C@H](C)[C@@H]1CC=C2[C@]3(C)CC[C@H]4C(C)(C)[C@@H](O)CC[C@]4(C)[C@H]3CC[C@]21C
- EC50 [1]: > 10 µg/mL
- GI50 [2]: 0.83 µg/mL (≈ 1.87 µM)
- GI50 [3]: 0.79 µg/mL (≈ 1.78 µM)
- GI50 [4]: 0.33 µg/mL (≈ 0.745 µM)
- GI50 [5]: 0.91 µg/mL (≈ 2.06 µM)
- GI50 [6]: 0.71 µg/mL (≈ 1.6 µM)
- GI50 [7]: 0.65 µg/mL (≈ 1.47 µM)

SMILES: C=C(C)C(O)CC[C@@H](C)[C@@H]1CC[C@]2(C)C3=C(CC[C@@]12C)[C@@]1(C)CC[C@H](O)C(C)(C)[C@@H]1CC3 (some centres not stated)
- EC50 [1]: > 10 µg/mL
- GI50 [2]: 1.5 µg/mL (≈ 3.39 µM)
- GI50 [3]: 2.5 µg/mL (≈ 5.65 µM)
- GI50 [4]: 1.4 µg/mL (≈ 3.16 µM)
- GI50 [5]: 1.7 µg/mL (≈ 3.84 µM)
- GI50 [6]: 7 µg/mL (≈ 15.8 µM)
- GI50 [7]: 1.5 µg/mL (≈ 3.39 µM)

SMILES: C=C(C)[C@H](O)CC[C@H](C)[C@@H]1CC=C2[C@]3(C)CC[C@H]4C(C)(C)[C@@H](O)CC[C@]4(C)[C@H]3CC[C@]21C
- EC50 [1]: > 10 µg/mL
- GI50 [2]: 0.2 µg/mL (≈ 0.452 µM)
- GI50 [3]: 0.68 µg/mL (≈ 1.54 µM)
- GI50 [4]: 0.36 µg/mL (≈ 0.813 µM)
- GI50 [5]: 0.19 µg/mL (≈ 0.429 µM)
- GI50 [6]: > 1 µg/mL
- GI50 [7]: 0.58 µg/mL (≈ 1.31 µM)

SMILES: C[C@H](C/C=C/C(C)(C)O)[C@@H]1CC[C@]2(C)C3=C(CC[C@@]12C)[C@@]1(C)CC[C@H](O)C(C)(C)[C@@H]1CC3
- EC50 [1]: > 10 µg/mL
- GI50 [2]: 1.8 µg/mL (≈ 4.07 µM)
- GI50 [3]: 2.1 µg/mL (≈ 4.74 µM)
- GI50 [4]: 2.2 µg/mL (≈ 4.97 µM)
- GI50 [5]: 1.9 µg/mL (≈ 4.29 µM)
- GI50 [6]: 2 µg/mL (≈ 4.52 µM)
- GI50 [7]: 1.9 µg/mL (≈ 4.29 µM)

SMILES: C[C@@H](C/C=C/C(C)(C)O)[C@H]1CC[C@@]2(C)C3=C(C(=O)C[C@@]12C)[C@@]1(C)CC[C@H](O)C(C)(C)[C@@H]1CC3
- EC50 [1]: > 10 µg/mL
- GI50 [2]: > 1 µg/mL
- GI50 [3]: > 1 µg/mL
- GI50 [4]: > 1 µg/mL
- GI50 [5]: > 1 µg/mL
- GI50 [6]: > 1 µg/mL
- GI50 [7]: > 1 µg/mL
